Each structure is given as a SMILES string. Where “and” joins values, the source holds several entries; their conditions need not be identical. Equal values may be shown once. Results filed as inconclusive are left out. Calls of active or inactive are those of the source.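 Rule for the calls: active = fitted half-maximal concentration of signal decrease at or below twice the sample's top tested concentration; inconclusive = flat curve between -70 and -30 percent, or poor fit; inactive = flat within 30 percent, signal rise, or potency above limit.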

The experiment concerns the target T. gondii ME49Luc in IFN-y HeLa, luciferase, 72 h. The experiment in a line: inhibitors of Toxoplasma growth in IFN-γ-primed HeLa – cell-based, ME49Luc, luciferase, 72 h, dose response (AID 1259418).
With `Cc1ccc(CNC(=O)COc2nc(C)nc3ccccc23)cc1`, the AC50 was > 39 µM (inactive).

Take `CCCc1ccc(S(=O)(=O)N2CCC[C@@H]2C(=O)NCCc2csc(-c3ccccc3)n2)cc1`: the AC50 was 3.78 µM and 16 µM.

Regarding `COc1cccc(S(=O)(=O)N2CCCCN3[C@H](CO)[C@H](c4ccc(C#CC5CC5)cc4)[C@H]3C2)c1`, the AC50 was 10.8 µM and 2.78 µM.

Regarding `C[C@@H]1CN([C@@H](C)CO)C(=O)c2cccc(NC(=O)NC3CCCCC3)c2O[C@H]1CN(C)Cc1ccc(C(F)(F)F)cc1`, the AC50 is 16 µM.

For the compound `CC(C)Oc1ccc(NC(=O)c2nc3c(n2C(C)C)CCN(C(=O)c2ccccc2)C3)cc1`, the AC50 is 10.6 µM.

With `Cc1cc(C)c(S(=O)(=O)N2CCC3(CC2)NCCN=C3NCc2ccccc2C)cc1C`, the half-maximal activity concentration (AC50) was 6.27 µM.

In the case of `COc1ccccc1-c1ccc([C@@H]2[C@H](CO)N3CCCCN(C(=O)c4cccnc4)C[C@@H]23)cc1`, the AC50 was 17.2 µM.

With `Fc1ccccc1CSc1nc(Nc2ccc3c(c2)OCO3)c2ccccc2n1`, the AC50 is 33.2 µM.

`O=S(=O)(c1cccs1)N1CCCCN2[C@H](CO)[C@H](c3ccc(/C=C/c4ccccc4)cc3)[C@@H]2C1`: the AC50 is 18.8 µM.

Regarding `CN(C)C(=O)c1cccc(-c2ccc3c(c2)[C@@H]2[C@@H](CCN2C(=O)Cc2ccccc2)[C@@H](CO)N3)c1`, the AC50 was 17.6 µM.

On to `CCCCNC(=O)CCC1N=C2c3ccccc3N=C(SCc3ccccc3Cl)N2C1=O` (configuration not stated), for which the AC50 is 24.1 µM.

Consider `CCOc1ccccc1-c1nc(CN(c2ccc(C)cc2)S(=O)(=O)c2cccs2)c(C)o1`, for which the AC50 was 11.2 µM.

For the compound `CCc1ccc(S(=O)(=O)N2CCC3(CC2)NCCN=C3NCc2cc(F)cc(F)c2)cc1`, the AC50 is 6.6 µM.

On to `CC(C)CC#Cc1ccc([C@@H]2[C@@H](CO)N3CCCCN(C(=O)Nc4ccccc4)C[C@H]23)cc1`, for which the AC50 was 13.5 µM and 9.09 µM.

For `Cc1cccc(CNC2=NCCNC23CCN(S(=O)(=O)c2cc(C)c(C)cc2C)CC3)c1`, the AC50 is 5.49 µM.

On to `CN(C)C(=O)c1ccc(-c2ccc(C3[C@@H]4CN(Cc5ccc6c(c5)OCO6)C[C@H]3N4)cc2)cc1` (some centres not stated), for which the AC50 is 17.3 µM.

Consider `COc1ccc(CNC2=NCCNC23CCN(S(=O)(=O)c2ccc(C(C)C)cc2)CC3)cc1`, for which the AC50 is 19.9 µM.

Take `COc1cccc(-c2nc(C)c(-c3ccc(SCc4ccc(Cl)cc4)nn3)s2)c1`: the AC50 is 8.76 µM.

With `Fc1ccc(CSc2nc(NCc3ccc(Cl)cc3)c3ccccc3n2)cc1`, the AC50 was 16 µM.

As for `OC[C@H]1Nc2ccc(C#Cc3ccc(F)cc3)cc2[C@H]2[C@@H]1CCN2Cc1ccc2c(c1)OCO2`, the AC50 is 20 µM.

As for `COc1ccc(-c2nc(N(Cc3ccco3)CC3CCCO3)c3ccccc3n2)cc1` (configuration not stated), the AC50 is 31.8 µM.

`CC(C)n1cnc2c(NCC3CC3)nc(C3CCN(C(=O)c4ccccc4)CC3)cc21`: the AC50 was 21.7 µM.

For `CC(C)CC#Cc1ccc([C@@H]2[C@H](CO)N3C(=O)CN(C(=O)Nc4cc(F)ccc4F)C[C@@H]23)cc1`, the AC50 is 12.6 µM and 4.61 µM.

On to `COc1ccc(Cl)cc1NC(=O)COc1nc(C)nc2ccccc12`, for which the AC50 is 24.1 µM.

`Cc1ccc(-c2nc(CN3CCN(C(=O)Nc4ccc(C)c(Cl)c4)CC3)c(C)o2)cc1`: the AC50 is > 39 µM (inactive).

As to `CC(=O)NCc1nnn2c1CN(c1ncccn1)CCC2`, the half-maximal activity concentration (AC50) was 10.9 µM.

For the compound `CN(C)CC(=O)N1[C@H](C#N)[C@H](c2ccc(C#CC3CCCCC3)cc2)[C@@H]1CO`, the AC50 is 14.8 µM.

As to `CN1C(=O)c2cc(NC(=O)c3cccc(F)c3)ccc2OC[C@H]2O[C@@H](CC(=O)NCC3CCCCC3)CC[C@@H]21`, the AC50 was 21.5 µM.

For the compound `COc1ccc(Cc2cnc(N)nc2N)cc1OC`, the AC50 is 23.2 µM.

Consider `CCOc1ccc(-c2nc(CN(c3ccc(OC)cc3)S(=O)(=O)c3ccccc3C)c(C)o2)cc1`, for which the AC50 was 11.8 µM.

In the case of `Cc1ccccc1Cn1c(CN2CCC(C(=O)NCCCN3CCCC3)CC2)cc2ccccc21`, the AC50 was 18.2 µM.

On to `CCc1nc(OCC(=O)Nc2ccc(C)c(F)c2)c2ccccc2n1`, for which the AC50 is 26.6 µM.

In the case of `Cc1ccc(CSC2=Nc3ccccc3C3=NC(CC(=O)NCc4ccc5c(c4)OCO5)C(=O)N23)cc1` (configuration not stated), the AC50 is > 39 µM (inactive).

Consider `O=C(c1cnccn1)N1CC(=O)N2[C@H](CO)[C@@H](c3ccc(/C=C/c4ccccc4)cc3)[C@@H]2C1`, for which the AC50 was 21.7 µM and 13.2 µM.

Regarding `CCc1nc(OCC(=O)Nc2ccccc2C(=O)OC)c2ccccc2n1`, the AC50 is > 39 µM (inactive).

For the compound `O=C(c1ccc[nH]1)N1CCC2(CC1)COCCN(c1ncccn1)C2`, the AC50 is 7.07 µM.

For the compound `O=C(CCC1N=C2c3ccccc3N=C(SCc3ccc(F)cc3)N2C1=O)NCc1ccc(F)cc1` (configuration not stated), the AC50 is > 39 µM (inactive).

For `COc1ccc(OCC(=O)N2CCC3(CC2)Nc2ccc(Cl)cc2-n2cccc23)cc1`, the AC50 is > 39 µM (inactive).

Consider `COc1cccc(C(=O)Nc2ccc3c(c2)C(=O)N(C)[C@@H]2CC[C@H](CC(=O)NCc4ccc(F)cc4)O[C@@H]2CO3)c1`, for which the AC50 is 9.13 µM.

For the compound `CCOc1ccccc1NS(=O)(=O)c1cc2c3c(c1)CCC(=O)N3CCC2`, the AC50 is 26.1 µM.

With `O=C(Cc1ccncc1)N1CCCCN2[C@H](CO)[C@H](c3ccc(C#Cc4ccccc4F)cc3)[C@@H]2C1`, the AC50 was 8.53 µM.

With `CCc1ccc(S(=O)(=O)N2CCC[C@@H]2C(=O)NCCc2csc(-c3ccccc3)n2)cc1`, the AC50 is 21.8 µM.

With `O=C(Cc1ccncc1)N1CCCCN2[C@H](C1)[C@@H](c1ccc(C#Cc3ccccc3F)cc1)[C@@H]2CO`, the AC50 is 5.02 µM.

Consider `COc1cccc(N(Cc2nc(-c3cccc(C)c3)oc2C)S(=O)(=O)c2ccccc2)c1`, for which the AC50 is 8.5 µM.

Turning to `Cc1ccc(S(=O)(=O)N2CCC3(CC2)NCCN=C3NCc2ccccc2)c(C)c1`, the AC50 is 19.2 µM.

Turning to `O=S1(=O)c2ccccc2OCC2(CCN(Cc3ccc(F)cc3)CC2)CN1CC1CC1`, the AC50 was 26.6 µM.

As for `CNC(=O)NCC1CCC2(CCN(Cc3ccccc3)CC2)CO1` (configuration not stated), the AC50 is 26.3 µM.

For the compound `C[C@@H]1CN([C@@H](C)CO)C(=O)Cc2cc(NS(=O)(=O)c3ccc(Cl)cc3)ccc2O[C@@H]1CN(C)C(=O)Nc1ccc(C(F)(F)F)cc1`, the AC50 is 27.9 µM and 13.5 µM.

As to `N#C[C@H]1[C@H](c2ccc(C#Cc3ccccc3F)cc2)[C@@H](CO)N1C(=O)c1cccnc1`, the AC50 is > 39 µM (inactive).

Turning to `OC[C@H]1[C@@H](c2ccc(C#Cc3ccccc3F)cc2)[C@@H]2CN(CC3CCOCC3)CCCCN12`, the AC50 was 15.9 µM.

As to `CC(C)NC(=O)N1CC(=O)N2[C@H](C1)[C@@H](c1ccc(/C=C/c3ccccc3)cc1)[C@@H]2CO`, the AC50 is 10.4 µM.

With `CCc1c2c(nc3ccc(OC(=O)N4CCC(N5CCCCC5)CC4)cc13)-c1cc3c(c(=O)n1C2)COC(=O)[C@]3(O)CC`, the AC50 is 21 µM.

Regarding `CC(=O)N(C)C1(c2ccccc2)CCN(CCC[C@]2(c3ccc(Cl)c(Cl)c3)CCCN(C(=O)c3ccccc3)C2)CC1`, the AC50 is 12 µM.

For `COc1ccc(OC)c(S(=O)(=O)N2CCc3c([nH]c4ccccc34)C2c2cc(F)ccc2F)c1` (configuration not stated), the AC50 was > 39 µM (inactive).

`CCc1ccc(S(=O)(=O)N2CCC3(CC2)NCCN=C3NCc2ccc(F)c(Cl)c2)cc1`: the AC50 is 4.73 µM.

In the case of `C[C@@H]1CN([C@H](C)CO)C(=O)Cc2cc(NC(=O)C3CCCCC3)ccc2O[C@H]1CN(C)Cc1ccc(Cl)c(Cl)c1`, the AC50 was 17.4 µM.

Take `O=S(=O)(c1ccccc1)N1CCCCN2[C@H](CO)[C@@H](c3ccc(C#CC4CCCC4)cc3)[C@@H]2C1`: the AC50 is 13.4 µM.

For orientation: AC50 means the concentration giving half of the maximal activity seen.

(Values after PubChem BioAssay AID1259418 (Broad Institute, 2018).)
